Results as given in patent US12692463B2, “Blends of alcohol ethoxylate and methyl ester sulfonate in unit dose products for improved mildness” (Henkel AG & Co. KGaA, priority 2023, dated 2026).

Assay: Percent swelling of water-soluble film strips submerged in detergent formula
Type: physicochemical
Conditions: Minitab mixture regression on solvent component proportions, Formulas 7-16
Protocol: The term % swelling as used in the present application means the percent increase or decrease in weight, for example the weight of a pouch strip, such as a polyvinyl alcohol strip, following submersion in a detergent composition for a given period of time, for example twenty-four hours (hr). The % swelling is calculated as described in the examples by taking a post-soaking weight, subtracting an initial, pre-soaking weight, and dividing by the initial, pre-soaking weight. To measure the percent (%) swelling, a fresh sheet of film was traced and cut into three identical film strips (3 cm wide by 8.5 cm long) for each formula being tested. Strips were labeled #1, #2, and #3 and placed into a tared petri dish one by one, recording the weights of each piece of film individually. Strips #1 and #2 were placed parallel to one another on the bottom of the petri dish and strip #3 was laid perpendicularly over strips #1 and #2. The petri dish was then filled half way, ensuring all film strips were submerged in the formula being tested. The petri dish was wrapped with parafilm, sealing around the edge of the petri dish. […] The cleaned film strip #3 was placed into a clean, tared petri dish lid, and the final weight of the film strip was recorded. […] Percent (%) swelling ratios were determined for Formulas 7-16 using polyvinyl alcohol (PVA) strips. […]

SMILES	estimated regression coefficient for % swelling
CC(O)CO (centres unmarked) [PG, Propylene Glycol]	0.4263
OCC(O)CO [Glycerin]	0.8037
